ChEMBL document CHEMBL6103619, “Discovery of a Novel CRBN-Recruiting cGAS PROTAC Degrader for the Treatment of Ulcerative Colitis” (J Med Chem, 2025)
The source made the active and inactive calls. The rule behind the calls is not given here.

Columns and labels:
Format in all cases: cell-based
[1] = Inhibition of dsDNA-induced cGAS signaling pathway in human THP1-Lucia ISG cells preincubated with compound for 24 hrs followed by HT-DNA addition and measured after 24 hrs by QUANTI-Luc luciferase reagent based assay
[2] = target: T1, Protein cereblon/Cyclic GMP-AMP synthase (Homo sapiens, UniProt Q96SW2+Q8N884); test: PROTAC activity at CRBN/cGAS in human THP-1 cells assessed as induction of cGAS degradation at 10 uM preincubated with compound for 40 hrs followed by HT-DNA stimulation and measured after 8 hrs by Western blot analysis relative to control; conditions: time 48.0 hrs
[3] = Inhibition of dsDNA-induced cGAS signaling pathway in mouse RAW-Lucia ISG cells preincubated with compound for 24 hrs followed by HT-DNA addition and measured after 24 hrs by QUANTI-Luc luciferase reagent based assay
THP-1 = test: Induction of cGAS degradation in human THP-1 cells at 10 uM preincubated with compound for 40 hrs followed by HT-DNA stimulation and measured after 8 hrs by Western blot analysis relative to control; conditions: time 48.0 hrs
[4] = target: T1, Protein cereblon/Cyclic GMP-AMP synthase; test: PROTAC activity at CRBN/cGAS in human THP-1 cells assessed as induction of cGAS degradation at 10 uM incubated for 48 hrs by Western blot analysis

T1 sequence (Q8N884 whole entry, looked up): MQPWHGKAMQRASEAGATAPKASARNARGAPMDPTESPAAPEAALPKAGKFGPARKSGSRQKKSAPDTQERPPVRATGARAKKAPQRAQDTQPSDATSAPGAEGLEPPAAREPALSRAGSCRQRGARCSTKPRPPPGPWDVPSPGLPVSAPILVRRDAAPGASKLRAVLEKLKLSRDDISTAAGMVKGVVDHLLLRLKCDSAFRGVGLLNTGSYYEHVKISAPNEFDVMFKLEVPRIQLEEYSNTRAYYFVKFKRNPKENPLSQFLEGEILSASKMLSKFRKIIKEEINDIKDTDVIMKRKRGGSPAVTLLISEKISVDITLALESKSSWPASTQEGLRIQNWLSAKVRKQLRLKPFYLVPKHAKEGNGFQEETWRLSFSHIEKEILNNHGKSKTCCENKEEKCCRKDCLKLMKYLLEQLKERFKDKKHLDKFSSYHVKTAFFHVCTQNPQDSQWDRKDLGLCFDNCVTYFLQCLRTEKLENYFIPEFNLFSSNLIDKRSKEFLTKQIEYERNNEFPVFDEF
T1 sequence (Q96SW2 whole entry, looked up): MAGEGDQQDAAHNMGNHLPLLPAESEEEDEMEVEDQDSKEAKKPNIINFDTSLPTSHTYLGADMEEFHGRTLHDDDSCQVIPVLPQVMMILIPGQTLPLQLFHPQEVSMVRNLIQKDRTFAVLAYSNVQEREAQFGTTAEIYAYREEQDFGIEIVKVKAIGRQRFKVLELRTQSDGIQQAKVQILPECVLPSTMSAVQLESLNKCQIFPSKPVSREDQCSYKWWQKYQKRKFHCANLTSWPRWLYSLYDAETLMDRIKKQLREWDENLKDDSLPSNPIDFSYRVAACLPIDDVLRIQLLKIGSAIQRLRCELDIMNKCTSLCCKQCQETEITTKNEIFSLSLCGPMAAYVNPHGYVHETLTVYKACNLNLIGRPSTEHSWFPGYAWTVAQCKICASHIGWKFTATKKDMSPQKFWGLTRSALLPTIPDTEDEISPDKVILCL

Row | Structure (SMILES) | IC50 [1] | Activity [2] | IC50 [3] | Activity [4] | Activity (THP-1)
1 | Cn1ccc(-c2cc(Cl)c(Cl)c3[nH]c4c(c23)CN(C(=O)CNC(=O)CN2CCN(C(=O)COc3cccc5c3C(=O)N(C3CCC(=O)NC3=O)C5=O)CC2)CC4)n1 (centres undefined) | > 50 µM | 18.7% | > 50 µM | – | –
2 | O=C1CCC(N2C(=O)c3cccc(NCCOCCOCCOCCOCCOCCC(=O)N4CCC(Cn5cc(-c6cc(Cl)c(Cl)c7[nH]c8c(c67)CN(C(=O)CO)CC8)cn5)CC4)c3C2=O)C(=O)N1 (centres undefined) | > 50 µM | 10.4% | > 50 µM | – | –
3 | Cn1ccc(-c2cc(Cl)c(Cl)c3[nH]c4c(c23)CN(C(=O)CNC(=O)CCCC#Cc2ccc3c(c2)CN(C2CCC(=O)NC2=O)C3=O)CC4)n1 (centres undefined) | > 50 µM | 25.6% | > 50 µM | – | –
4 | Cn1ccc(-c2cc(Cl)c(Cl)c3[nH]c4c(c23)CN(C(=O)CNC(=O)CCOCCOCCOCCOCCNc2cccc3c2C(=O)N(C2CCC(=O)NC2=O)C3=O)CC4)n1 (centres undefined) | > 50 µM | 20.5% | > 50 µM | – | –
5 | Cn1ccc(-c2cc(Cl)c(Cl)c3[nH]c4c(c23)CN(C(=O)CNC(=O)CCCCCCCCNc2cccc3c2C(=O)N(C2CCC(=O)NC2=O)C3=O)CC4)n1 (centres undefined) | 37.1 µM | 30.4% | > 50 µM | – | –
6 | Cn1ccc(-c2cc(Cl)c(Cl)c3[nH]c4c(c23)CN(C(=O)CNC(=O)CCC2CCN(C(=O)COc3cccc5c3C(=O)N(C3CCC(=O)NC3=O)C5=O)CC2)CC4)n1 (centres undefined) | > 50 µM | 18.9% | > 50 µM | – | –
7 | O=C1CCC(N2C(=O)c3cccc(NCCCC(=O)N4CCC(Cn5cc(-c6cc(Cl)c(Cl)c7[nH]c8c(c67)CN(C(=O)CO)CC8)cn5)CC4)c3C2=O)C(=O)N1 (centres undefined) | > 50 µM | 4.7% | > 50 µM | – | –
8 | O=C1CCC(N2C(=O)c3cccc(NCCCCC(=O)N4CCC(Cn5cc(-c6cc(Cl)c(Cl)c7[nH]c8c(c67)CN(C(=O)CO)CC8)cn5)CC4)c3C2=O)C(=O)N1 (centres undefined) | > 50 µM | 10.5% | > 50 µM | – | –
9 | Cn1ccc(-c2cc(Cl)c(Cl)c3[nH]c4c(c23)CN(C(=O)CNC(=O)CCCCCCCCCNc2cccc3c2C(=O)N(C2CCC(=O)NC2=O)C3=O)CC4)n1 (centres undefined) | > 50 µM | 12.4% | > 50 µM | – | –
10 | O=C1CCC(N2C(=O)c3cccc(NCCCCCC(=O)N4CC(Cn5cc(-c6cc(Cl)c(Cl)c7[nH]c8c(c67)CN(C(=O)CO)CC8)cn5)C4)c3C2=O)C(=O)N1 (centres undefined) | > 50 µM | 36.3% | > 50 µM | – | –
11 | Cn1ccc(-c2cc(Cl)c(Cl)c3[nH]c4c(c23)CN(C(=O)CNC(=O)COCCNc2cccc3c2C(=O)N(C2CCC(=O)NC2=O)C3=O)CC4)n1 (centres undefined) | 34.2 µM | 38.2% | > 50 µM | – | –
12 | Cn1ccc(-c2cc(Cl)c(Cl)c3[nH]c4c(c23)CN(C(=O)CNC(=O)CCCCCCCCCCCNc2cccc3c2C(=O)N(C2CCC(=O)NC2=O)C3=O)CC4)n1 (centres undefined) | > 50 µM | 4.3% | > 50 µM | – | –
13 | O=C1CCC(N2C(=O)c3cccc(NCCCCCCCCC(=O)N4CC(Cn5cc(-c6cc(Cl)c(Cl)c7[nH]c8c(c67)CN(C(=O)CO)CC8)cn5)C4)c3C2=O)C(=O)N1 (centres undefined) | > 50 µM | 21.2% | > 50 µM | – | –
14 | O=C1CCC(N2C(=O)c3cccc(NCCOCCOCCOCCOCCOCCOCCOCCOCCC(=O)N4CCC(Cn5cc(-c6cc(Cl)c(Cl)c7[nH]c8c(c67)CN(C(=O)CO)CC8)cn5)CC4)c3C2=O)C(=O)N1 (centres undefined) | > 50 µM | 4.6% | > 50 µM | – | –
15 | Cn1ccc(-c2cc(Cl)c(Cl)c3[nH]c4c(c23)CN(C(=O)CNC(=O)CCN2CCN(C(=O)COc3cccc5c3C(=O)N(C3CCC(=O)NC3=O)C5=O)CC2)CC4)n1 (centres undefined) | > 50 µM | 15.1% | > 50 µM | – | –
16 | O=C1CCC(N2C(=O)c3cccc(NCCCCCCCCC(=O)N4CCC(Cn5cc(-c6cc(Cl)c(Cl)c7[nH]c8c(c67)CN(C(=O)CO)CC8)cn5)CC4)c3C2=O)C(=O)N1 (centres undefined) | > 50 µM | 23.9% | > 50 µM | – | –
17 | Cn1ccc(-c2cc(Cl)c(Cl)c3[nH]c4c(c23)CN(C(=O)CNC(=O)CCNc2cccc3c2C(=O)N(C2CCC(=O)NC2=O)C3=O)CC4)n1 (centres undefined) | 35.1 µM | 42% | > 50 µM | – | –
18 | Cn1ccc(-c2cc(Cl)c(Cl)c3[nH]c4c(c23)CN(C(=O)CNC(=O)CCCCC#Cc2ccc3c(c2)CN(C2CCC(=O)NC2=O)C3=O)CC4)n1 (centres undefined) | > 50 µM | 21.9% | > 50 µM | – | –
19 | Cn1ccc(-c2cc(Cl)c(Cl)c3[nH]c4c(c23)CN(C(=O)CNC(=O)CCCCCCCCCCNc2cccc3c2C(=O)N(C2CCC(=O)NC2=O)C3=O)CC4)n1 (centres undefined) | 38.8 µM | 20.4% | > 50 µM | – | –
20 | O=C1CCC(N2C(=O)c3cccc(NCCOCCOCCOCC(=O)N4CCC(Cn5cc(-c6cc(Cl)c(Cl)c7[nH]c8c(c67)CN(C(=O)CO)CC8)cn5)CC4)c3C2=O)C(=O)N1 (centres undefined) | > 50 µM | 13.9% | > 50 µM | – | –
21 | Cn1ccc(-c2cc(Cl)c(Cl)c3[nH]c4c(c23)CN(C(=O)CNC(=O)CC2CCN(C(=O)COc3cccc5c3C(=O)N(C3CCC(=O)NC3=O)C5=O)CC2)CC4)n1 (centres undefined) | > 50 µM | 6.3% | > 50 µM | – | –
22 | Nc1cccc2c1CN(C1CCC(=O)NC1=O)C2=O (centres undefined) [LENALIDOMIDE] | > 50 µM | – | > 50 µM | – | 0.3%
23 | O=C1CCC(N2C(=O)c3cccc(NCCCCCCCC(=O)N4CCC(Cn5cc(-c6cc(Cl)c(Cl)c7[nH]c8c(c67)CN(C(=O)CO)CC8)cn5)CC4)c3C2=O)C(=O)N1 (centres undefined) | > 50 µM | 35.6% | > 50 µM | – | –
24 | CN1C(=O)CCC(N2Cc3c(C#CCCCC(=O)NCC(=O)N4CCc5[nH]c6c(Cl)c(Cl)cc(-c7ccn(C)n7)c6c5C4)cccc3C2=O)C1=O (centres undefined) | – | – | – | inactive | –

Continued, in another order:

Row | IC50 [1] | Activity [2] | IC50 [3] | Activity [4] | Structure (SMILES) | Activity (THP-1)
25 | 33.6 µM | 44.3% | > 50 µM | – | O=C1CCC(N2C(=O)c3cccc(NCCOCCOCC(=O)N4CCC(Cn5cc(-c6cc(Cl)c(Cl)c7[nH]c8c(c67)CN(C(=O)CO)CC8)cn5)CC4)c3C2=O)C(=O)N1 (centres undefined) | –
26 | 18.9 µM | 48.5% | > 50 µM | – | Cn1ccc(-c2cc(Cl)c(Cl)c3[nH]c4c(c23)CN(C(=O)CNC(=O)CCCCC#Cc2cccc3c2C(=O)N(C2CCC(=O)NC2=O)C3=O)CC4)n1 (centres undefined) | –
27 | 12.8 µM | 56.1% | 30.8 µM | – | Cn1ccc(-c2cc(Cl)c(Cl)c3[nH]c4c(c23)CN(C(=O)CNC(=O)CCCC#Cc2cccc3c2C(=O)N(C2CCC(=O)NC2=O)C3=O)CC4)n1 (centres undefined) | –
28 | 29.6 µM | 34.2% | > 50 µM | – | Cn1ccc(-c2cc(Cl)c(Cl)c3[nH]c4c(c23)CN(C(=O)CNC(=O)CCCCCCCNc2cccc3c2C(=O)N(C2CCC(=O)NC2=O)C3=O)CC4)n1 (centres undefined) | –
29 | 28.4 µM | 45.1% | > 50 µM | – | Cn1ccc(-c2cc(Cl)c(Cl)c3[nH]c4c(c23)CN(C(=O)CCCCC#Cc2cccc3c2CN(C2CCC(=O)NC2=O)C3=O)CC4)n1 (centres undefined) | –
30 | 8.8 µM | 57.7% | 15.1 µM | – | Cn1ccc(-c2cc(Cl)c(Cl)c3[nH]c4c(c23)CN(C(=O)CNC(=O)CCCCC#Cc2cccc3c2CN(C2CCC(=O)NC2=O)C3=O)CC4)n1 (centres undefined) | –
31 | 27.4 µM | 46.8% | > 50 µM | – | Cn1ccc(-c2cc(Cl)c(Cl)c3[nH]c4c(c23)CN(C(=O)CNC(=O)COCCOCCNc2cccc3c2C(=O)N(C2CCC(=O)NC2=O)C3=O)CC4)n1 (centres undefined) | –
32 | 25.6 µM | 40.4% | 35.6 µM | – | Cn1ccc(-c2cc(Cl)c(Cl)c3[nH]c4c(c23)CN(C(=O)CCCC#Cc2cccc3c2CN(C2CCC(=O)NC2=O)C3=O)CC4)n1 (centres undefined) | –
33 | 12.2 µM | 58.7% | 25.6 µM | – | Cn1ccc(-c2cc(Cl)c(Cl)c3[nH]c4c(c23)CN(C(=O)CNC(=O)CCCNc2cccc3c2C(=O)N(C2CCC(=O)NC2=O)C3=O)CC4)n1 (centres undefined) | –
34 | 28.1 µM | 34.6% | > 50 µM | – | Cn1ccc(-c2cc(Cl)c(Cl)c3[nH]c4c(c23)CN(C(=O)CNC(=O)COCCOCCOCCNc2cccc3c2C(=O)N(C2CCC(=O)NC2=O)C3=O)CC4)n1 (centres undefined) | –
35 | 12.5 µM | 59.3% | 26.7 µM | – | Cn1ccc(-c2cc(Cl)c(Cl)c3[nH]c4c(c23)CN(C(=O)CNC(=O)CCCCCNc2cccc3c2C(=O)N(C2CCC(=O)NC2=O)C3=O)CC4)n1 (centres undefined) | –
36 | 20.5 µM | 57.7% | 39.8 µM | – | O=C1CCC(N2C(=O)c3cccc(NCCCCCC(=O)N4CCC(Cn5cc(-c6cc(Cl)c(Cl)c7[nH]c8c(c67)CN(C(=O)CO)CC8)cn5)CC4)c3C2=O)C(=O)N1 (centres undefined) | –
37 | 16.3 µM | 55.1% | 28.3 µM | – | Cn1ccc(-c2cc(Cl)c(Cl)c3[nH]c4c(c23)CN(C(=O)CNC(=O)CCCCCCNc2cccc3c2C(=O)N(C2CCC(=O)NC2=O)C3=O)CC4)n1 (centres undefined) | –
38 | 12.7 µM | 54.4% | 25.3 µM | – | Cn1ccc(-c2cc(Cl)c(Cl)c3[nH]c4c(c23)CN(C(=O)CNC(=O)CCCCCC#Cc2cccc3c2CN(C2CCC(=O)NC2=O)C3=O)CC4)n1 (centres undefined) | –
39 | 25.8 µM | 44.7% | > 50 µM | – | O=C1CCC(N2C(=O)c3cccc(NCCCCCCC(=O)N4CCC(Cn5cc(-c6cc(Cl)c(Cl)c7[nH]c8c(c67)CN(C(=O)CO)CC8)cn5)CC4)c3C2=O)C(=O)N1 (centres undefined) | –
40 | 28.8 µM | 44.7% | > 50 µM | – | Cn1ccc(-c2cc(Cl)c(Cl)c3[nH]c4c(c23)CN(C(=O)CCCCCCC#Cc2cccc3c2CN(C2CCC(=O)NC2=O)C3=O)CC4)n1 (centres undefined) | –
41 | 8.1 µM | 61.5% | 16.1 µM | – | Cn1ccc(-c2cc(Cl)c(Cl)c3[nH]c4c(c23)CN(C(=O)CNC(=O)CCCCNc2cccc3c2C(=O)N(C2CCC(=O)NC2=O)C3=O)CC4)n1 (centres undefined) | –
42 | 21.4 µM | 57.7% | > 50 µM | – | Cn1ccc(-c2cc(Cl)c(Cl)c3[nH]c4c(c23)CN(C(=O)CNC(=O)CCCCCC#Cc2cccc3c2C(=O)N(C2CCC(=O)NC2=O)C3=O)CC4)n1 (centres undefined) | –
